Measurements published in patent US20030157640A1, “Aequorin as a growth marker in yeast” (priority 2001, published 2003).

Legend:
GPCR Ste2 = target: T1, GPCR Ste2 (Saccharomyces cerevisiae, UniProt D6VTK4); details: yeast cell, basal level approximately 100 nM; Iida et al., 1990; cited from earlier work
T1 construct: The addition of α-factor to a yeast cell (i.e. stimulation of the GPCR Ste2) raises [Ca^2+]i
T1 sequence (D6VTK4 1-431): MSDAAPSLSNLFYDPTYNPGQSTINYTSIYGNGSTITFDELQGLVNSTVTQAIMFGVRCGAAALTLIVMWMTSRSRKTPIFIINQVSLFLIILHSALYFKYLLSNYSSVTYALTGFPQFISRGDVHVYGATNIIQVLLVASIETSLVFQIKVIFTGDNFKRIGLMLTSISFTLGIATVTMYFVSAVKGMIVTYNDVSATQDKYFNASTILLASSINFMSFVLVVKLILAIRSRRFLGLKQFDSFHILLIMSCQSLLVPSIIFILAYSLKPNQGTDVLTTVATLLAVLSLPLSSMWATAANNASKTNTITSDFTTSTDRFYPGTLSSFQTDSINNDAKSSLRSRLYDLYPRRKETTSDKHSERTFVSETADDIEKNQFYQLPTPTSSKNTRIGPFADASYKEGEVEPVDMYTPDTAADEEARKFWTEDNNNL

pheromone receptor Ste2 [1] = target: T2, pheromone receptor Ste2 (Saccharomyces cerevisiae, UniProt D6VTK4); test: Pheromone pathway activity reporter assay, 4PRE-Aequorin reporter in yeast; format: cell-based
T2 construct: As a yeast strain W303 MAT a, far::hisG, sst2::URA3^FOA, fus1::HIS3 was used; endogenous in cells; host or cells: yeast strain W303 MATa far::hisG sst2::URA3^FOA fus1::HIS3, transformed with reporter plasmid p78 4PRE-AEQ or p78 4PRE-LacZ
T2 sequence (D6VTK4 1-431): T1 sequence (D6VTK4 1-431)
Description: (§1) As a yeast strain W303 MAT a, far::hisG, sst2::URA3^FOA, fus1::HIS3 was used.
The cells are distributed and/or grown in a white 96-well plate, in a volume of 100 μl.
30 minutes before the measurement time point, 10 μl of a 5 μM coelenterazine (Molecular Probes) solution is distributed in each well (to obtain a 0.5 μM final concentration) to load the cells.
The plate is then incubated at 30° C. for the last 30 minutes.
Aequorin detection is made in a luminometer with injecting system (Luminoskan, Labsystems). For each well, immediately after injection of a 10 mM CaCl2 solution (1M CaCl2 diluted in lysis buffer Y-PER from Pierce), the luminescent signal is integrated for 15 seconds.
To avoid the intermediate step of loading, it is possible to introduce coelenterazine in the medium at the beginning of the assay: coelenterazine is added at a concentration of 0.5 μM.
(§2) In this assay, the expression of the two reporter genes depends on the activity of the pheromone mating pathway (Leberer et al., 1997). The minimal promoter 4PRE amplified from the FUS1 promoter region (Hagen et al., 1991) is activated only in case of a mating signal. This signal is elicited by stimulation of the pheromone receptor Ste2 by its ligand α-factor.
(§3) Three colonies of the yeast strain transformed with either p78 4PRE-AEQ or p78 4PRE-LacZ plasmids were grown in the appropiate medium (SC Glucose—Trp) to stationary phase and then diluted in the same medium (with 0.5 μM coelenterazin for the aequorin strain) containing 0; 10^−7; 10^−9; 10^−11M α-factor (Sigma). The plates were then shaken at 30° C., 700 r.p.m., for 3, 6 and 24 hours.
(§4) To allow the comparison between the two reporters and the different stimulation times, the measured detection numbers of Aequorin (FIG. 5) and β-Galactosidase (FIG. 6) are expressed as a ratio: stimulated/non stimulated.

pheromone receptor Ste2 [2] = target: T2, pheromone receptor Ste2; test: Pheromone pathway activity reporter assay, 4PRE-LacZ (β-Galactosidase) reporter in yeast; format: cell-based
Description: as §1
The cells are distributed and/or grown in a white 96-well plate, in a volume of 100 μl. At the measurement time point, each well receives 100 μl of a β-Galactosidase detection mix (Gal-screen, Tropix).
The plate is incubated for one hour at 28° C.
β-Galactosidase signal is read in a luminometer; the luminescent signal is integrated for 0.5 seconds.
as §2, §3, §4

[3] = 1 nM α-factor, 3 hours of stimulation
[4] = 1 nM α-factor, 6 hours of stimulation
[5] = 100 nM α-factor, 3 hours of stimulation
[6] = 100 nM α-factor, 6 hours of stimulation

α-factor
[Ca2+]i after addition of α-factor (GPCR Ste2): a few hundred | Aequorin detection ratio stimulated/non stimulated (pheromone receptor Ste2 [1]; [3]): 8 | Aequorin detection ratio stimulated/non stimulated (pheromone receptor Ste2 [1]; [4]): 11 | Aequorin detection ratio stimulated/non stimulated (pheromone receptor Ste2 [1]; [5]): 24 | Aequorin detection ratio stimulated/non stimulated (pheromone receptor Ste2 [1]; [6]): 36 | β-Galactosidase detection ratio stimulated/non stimulated (pheromone receptor Ste2 [2]; [3]): 4 | β-Galactosidase detection ratio stimulated/non stimulated (pheromone receptor Ste2 [2]; [4]): 7 | β-Galactosidase detection ratio stimulated/non stimulated (pheromone receptor Ste2 [2]; [5]): 7 | β-Galactosidase detection ratio stimulated/non stimulated (pheromone receptor Ste2 [2]; [6]): 7
